Assays:
[1] = target: T1, MiGSTU (Mangifera indica glutathione S-transferase Tau class) (Mangifera indica, UniProt A0A1P8NWC2); assay: steady-state enzyme kinetics of the purified enzyme; format: biochemical; conditions: read-out: CDNB / Km
T1 sequence (A0A1P8NWC2 1-229): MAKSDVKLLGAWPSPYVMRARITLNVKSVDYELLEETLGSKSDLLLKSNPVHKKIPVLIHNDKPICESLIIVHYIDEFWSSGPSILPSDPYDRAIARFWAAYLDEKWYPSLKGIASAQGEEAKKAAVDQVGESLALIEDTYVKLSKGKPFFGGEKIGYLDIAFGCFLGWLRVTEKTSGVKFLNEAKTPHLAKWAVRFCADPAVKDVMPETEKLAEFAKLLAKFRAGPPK

[2] = target: Mangifera indica glutathione S-transferase Tau class (MiGSTU) (mango (Mangifera indica)); assay: SEC

| stoichiometry N [2] | Compound | Km [1] |
| --- | --- | --- |
|  | O=[N+]([O-])c1ccc(Cl)c([N+](=O)[O-])c1 [CDNB] | 792 µM |
| 2 | Mangifera indica glutathione S-transferase Tau class (MiGSTU) (enzyme) |  |

From article PMC5346462 (Biochimie, 2017)
